Experimental data reported in patent publication US8629169B2, “4-substituted-3-phenylsulfanylmethyl-bicyclo[3.1.0]hexane compounds as mGluR 2/3 antagonists” (Eli Lilly and Company, priority 2010, dated 2014).

Tests used:
mice = assay: mFST alone and in combination with SSRI; format: in vivo, mouse; conditions: Example 12 10 mg/kg p.o.
male NIH-Swiss mice = assay: Forced-swim test in mice (mFST); format: in vivo, mouse; conditions: p.o.
[1] = citalopram experiment, citalopram 1 mg/kg i.p.
[2] = fluoxetine experiment, fluoxetine 10 mg/kg i.p.

CN(C)CCCC1(c2ccc(F)cc2)OCc2cc(C#N)ccc21 (stereo not drawn) [Citalopram, citalopram, reference compound]
Immobilization Time (mice; [1]): 102 s | Maximal Decrease (1 − compound/control) * 100% (mice; [1]): 42.1%

CC(C)OC(=O)OCOC(=O)[C@H]1[C@@H]2[C@H](O)[C@@H](CSc3ccc(F)c(Cl)c3)[C@@](N)(C(=O)OCOC(=O)OC(C)C)[C@H]12.Cl [Example 22, Bis({[(1-methylethoxy)carbonyl]oxy}methyl) (1S,2R,3S,4S,5R,6R)-2-amino-3-{[(3-chloro-4-fluorophenyl)sulfanyl]methyl}-4-hydroxybicyclo[3.1.0]hexane-2,6-dicarboxylate hydrochloride]
ED60 (mg/kg) (male NIH-Swiss mice; immobility, last 4 min of 6 min): 20.5 (p.o.) mg/kg | Maximal Decrease (1 − compound/control) * 100% (male NIH-Swiss mice; immobilization time): 50.1%

CNCCC(Oc1ccc(C(F)(F)F)cc1)c1ccccc1 (stereo not drawn) [Fluoxetine, fluoxetine, reference compound]
Immobilization Time (mice; [2]): 118 s | Maximal Decrease (1 − compound/control) * 100% (mice; [2]): 31.5%
